Measured values from patent publication US6448392B1, “Lipid derivatives of antiviral nucleosides: liposomal incorporation and method of use” (Chimerix, Inc., priority 1985, dated 2002).
Several values for one entry are separate records, joined by “and”; a condition that tells them apart may be missing. Identical values can stand only once. Counter-ions that a name gives are not always drawn. Like-named read-outs stand apart in the source and are kept apart here. Blank lines part the entries; values can stand above or below the compound they belong to.

How the values were obtained:
[1] = test system: HIV (LAV-1); assay: HIV plaque formation in HT4-6C cells (CD4+ HeLa cells) infected with LAV-1; type: cell-based
Experimental: In this experiment the compound of Example 7 (1-O- stearoylglycero-rac-3-phospho-5′-(3′-deoxy, 3′-azido)thymidine) was incorporated into liposomes containing 10 mole percent of the liponucleotide as indicated in Example 8. This material was diluted with RPMI medium to the desired concentration and added to HT4-6C cells (CD4+ HeLa cells) obtained from Dr. Bruce Chesbro of the Rocky Mountain National Laboratories (Hamilton, Mont.) which had been infected with LAV-1 as noted earlier in this example. After a 3 day incubation at 37° C., the cells were washed with PBS, fixed and stained with crystal violet and the plaques were counted.
PalmitoylAZT was incorporated into liposomes as noted in Example 8 and incubated with LAV-1 infected HT4-6C cells as noted in Examples 10 and 11. 0.8 uM palmitoylAZT inhibited plaque formation by 25% (134 plaques versus 176 in the untreated control).

[2] = test system: HSV-1; assay: Herpes simplex virus plaque reduction assay, HSV-1 in Wi-38 cells; type: cell-based, Herpes simplex virus type 1; details: for IC50: HSV-1 infected Wi-38 cells, plaque reduction, read-out: concentration which produces 50% inhibition
Experimental: Wi-38 cells were obtained from American Type Culture Collection (Rockville, Md. 20852) and grown in Dulbecco's minimum essential medium (DMEM) with 10% fetal calf serum (FCS). The cells were grown in 250 cm square bottles until reaching confluence.
Herpes simplex virus (HSV) type 1 (HSV-1) and type 2 (HSV-2) were obtained from the American Type Culture Collection. Both virus stocks were prepared in Wi-38 cells; extensive cytopathic effects (CPD) were observed when the stock virus was harvested by a single freezing and thawing and the cell debris was clarified by low speed centrifugation (2000 rpm). Supernatant fluids containing the virus were aliquoted into small vials and stored at −80° C. Both HSV-1 and HSV-2 stocks were titered in Wi-38 cells before use in the experiments.
The plaque reduction assay was used to measure the antiviral effect of phosphatidylacyclovir or free ACV. Wi-38 cells were trypsinized with 0.25% trypsin for 5 min. The cells were harvested and centrifuged to remove residual trypsin and the cell pellet was resuspended in DMEM with 10% FCS. The Wi-38 cells were plated in a 96 well plate ([…] cells/well) for one hour. The infected cells were then treated with phosphatidylacyclovir or ACV. The antiviral agents were prepared in stock solutions which were then diluted two-fold with 2% FBS in DMEM containing 0.5% methylcellulose. 100 μl of each diluted antiviral agent was added into each well of HSV infected cells.
The control and drug-treated cell cultures were incubated in a 37° C. incubator with 5% carbon dioxide for 24 hours. […] The dye was rinsed off with tap water and the plate was dried and plaques were counted. The antiviral effect of ACV or phosphatidylacyclovir was determined by measurement of plaque reduction as shown in the example below.

[3] = test system: HIV (LAV-1 strain); type: cell-based; details: for inhibition of HIV p24 production: Experiment H747-1b, CEM cells; for EC50: CEM wild type
Experimental: 6.42 micromoles of dioleoylphosphatidylcholine, 3.85 micromoles of cholesterol, 1.28 micromoles of dioleoylphosphatidylglycerol and 1.28 micromoles of dimyristoylphosphatidyl-azidothymidine were mixed in a sterile 2.0 ml glass vial and the solvent was removed in vacuo in a rotary evaporator. In some experiments, dimyristoylphosphatidylazidothymidine was replaced with either dimyristoylphosphatidyldideoxythymidine, dimyristoylphosphatidyldideoxycytidine or azidothymidine diphosphate dimyristoylglycerol; control liposomes were prepared by omitting the antiviral liponucleotide. The dried film was placed under high vacuum overnight at room temperature to remove traces of solvent. The lipid film was hydrated at 30° C. with 0.3 ml of sterile 10 mM sodium acetate buffer (pH 5.0) containing isotonic dextrose and the ampule was sealed. The mixture was vortexed intermittently for 10 minutes followed by sonication using a Heat Systems Ultrasonics sonicator with a cup horn generator (431B) at output control setting #9 for 90 to 120 minutes at which time the sample is clarified. This sonicated preparation was diluted with sterile RPMI buffer and added to the tissue culture wells at the concentration indicated.
(§1) The human T lymphoblastoid cell line, CCRG-CEM (hereafter referred to as CEM), was grown in RPMI 1640 medium containing 100 U/ml penicillin G, 100 ug/ml streptomycin, 2 mM glutamine and 10% fetal bovine serum (Hyclone Laboratories, Logan, Utah). Cells were infected with the LAV-1 strain (L. Montagnier, Paris, France) at a multiplicity of infection of one tissue culture 50% infectious dose (TCID50)/cell for 60 minutes at 37° C. in medium containing […]. CEM cells were infected in suspension at 6×10^4 cells/ml, washed three times by centrifugation and resuspension and then distributed in 96-well plates at 6×10^4 cells/well before addition of medium containing the liposomal antiretroviral liponucleotide drugs.
(§2) Antiviral activity was assayed after 3 days by the inhibition of the production of HIV p24 (gag) antigen in the cell free culture medium of the infected cells exposed to different concentrations of drug; p24 antigen was measured by ELISA (Abbott Laboratories, Chicago, Ill.) according to the manufacturer's instructions. The data are the average of two determinations and are expressed as percentage of a control incubated in the absence of drugs.

[4] = test system: HIV in CEM tk- cells; assay: Inhibition of HIV p24 production in thymidine kinase deficient CEM tk- cells; type: cell-based; details: Experiment H637-1b, AZT 0.2 to 100 uM
Experimental: as §1, §2
In this experiment, CEM cells were replaced with mutant cells (provided by Dr. Dennis Carson, Scripps Clinic, San Diego, Calif.) which lack the thymidine kinase enzyme (CEM tk−).

[5] = test system: HIV in CEM (wild type) cells; assay: Experiment I276: antiviral protection of CEM cells by preincubation, p24 in supernates; type: cell-based; details: 3 day preincubation; 24 and 48 hours in normal media after removal of drug
Experimental: The cells were then washed twice with PBS, and fresh RPMI media added. Each group of cells was then divided into three batches. One batch was immediately infected with HIV, as noted above; after washing away unattached HIV, the sample was allowed to incubate in media alone for 3 days. Two other batches were allowed to incubate in media alone for either 24 or 48 hours to allow any intracellular antiviral agent present to become depleted. Then they were infected with HIV, the cells washed free of virus, and fresh RPMI media added. After 3 days of further incubation, the supernates of all batches were tested for the presence of p24 protein.
CEM cells were subjected to HIV infection without preincubation; drug was added following HIV infection as indicated, and the cells were incubated for 3 days.
After a further incubation for 3 days, p24 was measured.

[6] = 10 uM liponucleotide in liposomes, 3 day incubation
[7] = Experiment H533-1, liposomes containing 10 mole percent liponucleotide, p24 after 3 days, read-out: amount of drug required to reduce virus production by 50% (E.D. 50)
[8] = Experiment H805-1, liposomes, p24, read-out: ED50 (the source's name)

IC50 ([1]; HT4-6C cells infected with LAV-1, liposomes, read-out: concentration required to produce 50% inhibition of HIV plaque formation): ~350 nM
SMILES: CCCCCCCCCCCCCCCCCC(=O)OCC(O)COP(=O)(O)OC[C@H]1O[C@@H](n2cc(C)c(=O)[nH]c2=O)C[C@@H]1N=[N+]=[N-] (mixture of isomers) [Example 7, 1-O-stearoylglycero-rac-3-phospho-5′-(3′-azido-3′-deoxy)thymidine]
% of Untreated Control ([1]; 0.0316 uM): 78%
Plaques, Average ([1]; 0.0316 uM): 43
% of Untreated Control ([1]; 0.100 uM): 71%
Plaques, Average ([1]; 0.100 uM): 39
% of Untreated Control ([1]; 0.316 uM): 58%
Plaques, Average ([1]; 0.316 uM): 32
% of Untreated Control ([1]; 1.0 uM): 29%
Plaques, Average ([1]; 1.0 uM): 16
% of Untreated Control ([1]; 3.16 uM): 13%
Plaques, Average ([1]; 3.16 uM): 7
% of Untreated Control [1, 6]: 2%
Plaques, Average [1, 6]: 1

SMILES: CCCCCCCCCCCCCC(=O)OCC(COP(=O)(O)OCCOCn1cnc2c(=O)[nH]c(N)nc21)OC(=O)CCCCCCCCCCCCC (stereo in doubt) [PhosphatidylACV, dimyristoylphosphatidylacycloguanosine]
IC50 [2]: 2000 nM
% no Drug ([2]; PhosphatidylACV 0.84 uM): 91%
plaques (determinations 1 and 2) ([2]; PhosphatidylACV 0.84 uM): 24 and 26
plaques, mean ([2]; PhosphatidylACV 0.84 uM): 25
% no Drug ([2]; PhosphatidylACV 1.67 uM): 67%
plaques (determinations 1 and 2) ([2]; PhosphatidylACV 1.67 uM): 17 and 20
plaques, mean ([2]; PhosphatidylACV 1.67 uM): 18.5
% no Drug ([2]; PhosphatidylACV 3.3 uM): 40%
plaques (determinations 1 and 2) ([2]; PhosphatidylACV 3.3 uM): 10 and 12
plaques, mean ([2]; PhosphatidylACV 3.3 uM): 11
% no Drug ([2]; PhosphatidylACV 6.7 uM): 27%
plaques (determinations 1 and 2) ([2]; PhosphatidylACV 6.7 uM): 6 and 9
plaques, mean ([2]; PhosphatidylACV 6.7 uM): 7.5
% no Drug ([2]; PhosphatidylACV 13.4 uM): 18%
plaques (determinations 1 and 2) ([2]; PhosphatidylACV 13.4 uM): 4 and 6
plaques, mean ([2]; PhosphatidylACV 13.4 uM): 5
% no Drug ([2]; PhosphatidylACV 27 uM): 9%
plaques (determinations 1 and 2) ([2]; PhosphatidylACV 27 uM): 2 and 3
plaques, mean ([2]; PhosphatidylACV 27 uM): 2.5
% no Drug ([2]; PhosphatidylACV 54 uM): 0%
plaques (determinations 1 and 2) ([2]; PhosphatidylACV 54 uM): 0
plaques, mean ([2]; PhosphatidylACV 54 uM): 0
% no Drug ([2]; PhosphatidylACV 107 uM): 0%
plaques (determinations 1 and 2) ([2]; PhosphatidylACV 107 uM): 0
plaques, mean ([2]; PhosphatidylACV 107 uM): 0

SMILES: Nc1nc2c(ncn2COCCO)c(=O)[nH]1 [Acyclovir, Acycloguanosine, reference compound]
% no Drug ([2]; Acyclovir 0.155 uM): 73%
plaques (determinations 1 and 2) ([2]; Acyclovir 0.155 uM): 18 and 22
plaques, mean ([2]; Acyclovir 0.155 uM): 20
% no Drug ([2]; Acyclovir 0.31 uM): 65%
plaques (determinations 1 and 2) ([2]; Acyclovir 0.31 uM): 17 and 19
plaques, mean ([2]; Acyclovir 0.31 uM): 20
% no Drug ([2]; Acyclovir 0.625 uM): 26%
plaques (determinations 1 and 2) ([2]; Acyclovir 0.625 uM): 8 and 6
plaques, mean ([2]; Acyclovir 0.625 uM): 7
% no Drug ([2]; Acyclovir 1.25 uM): 13%
plaques (determinations 1 and 2) ([2]; Acyclovir 1.25 uM): 4 and 3
plaques, mean ([2]; Acyclovir 1.25 uM): 3.5
% no Drug ([2]; Acyclovir 2.5 uM): 0%
plaques (determinations 1 and 2) ([2]; Acyclovir 2.5 uM): 0
plaques, mean ([2]; Acyclovir 2.5 uM): 0
% no Drug ([2]; Acyclovir 5 uM): 0%
plaques (determinations 1 and 2) ([2]; Acyclovir 5 uM): 0
plaques, mean ([2]; Acyclovir 5 uM): 0
% no Drug ([2]; Acyclovir 10 uM): 0%
plaques (determinations 1 and 2) ([2]; Acyclovir 10 uM): 0
plaques, mean ([2]; Acyclovir 10 uM): 0
IC50 ([2]; Human alphaherpesvirus 1): 400 nM

SMILES: Cc1cn([C@H]2C[C@H](N=[N+]=[N-])[C@@H](CO)O2)c(=O)[nH]c1=O [Example N1, 3′-azido-3′-deoxythymidine, reference compound]
effectiveness in reducing p24, free AZT versus liponucleotide ([3]; Experiment H747-1a, low concentrations below 0.1 uM): more effective than the liponucleotide
effect on p24 production [4]: completely without effect
protection from HIV after removal of the drug [5]: failed to protect the cells from HIV infection

SMILES: Cc1cn([C@H]2CC[C@@H](CO)O2)c(=O)[nH]c1=O [Example N2, 2′,3′-dideoxythymidine, reference compound]
inhibition of HIV p24 production [3]: weak inhibitor of HIV p24 production

EC50 [3, 7]: 2000 nM
SMILES: CCCCCCCCCCCCCC(=O)OC[C@H](COP(=O)(O)OC[C@H]1O[C@@H](n2cc(C)c(=O)[nH]c2=O)C[C@@H]1N=[N+]=[N-])OC(=O)CCCCCCCCCCCCC [LN1, 1,2-Dimyristoylglycerophospho-5′-(3′-azido-3′-deoxy)thymidine, Monosodium Salt]
effectiveness in reducing p24, phosphatidylAZT liposomes versus free AZT ([3]; Experiment H747-1a, concentrations ranging from 2 to 170 uM): more effective than the free AZT
effect on p24 production [4]: capable of reducing p24 production
protection from HIV after removal of the drug [5]: complete protection from HIV replication

SMILES: CCCCCCCCCCCCCC(=O)OC[C@@H](COP(=O)(O)OC[C@@H]1CC[C@H](n2cc(C)c(=O)[nH]c2=O)O1)OC(=O)CCCCCCCCCCCCC [LN2, 1,2-Dimyristoylglycerophospho-5′-(3′-deoxy)thymidine, Monosodium Salt]
EC50 [3, 7]: 30000 nM
inhibition of HIV p24 production [3]: somewhat more effective than the free nucleoside
EC50 [3, 8]: 20000 nM
effect on p24 production [4]: capable of reducing p24 production

SMILES: CCCCCCCCCCCCCC(=O)OCC(COP(=O)(O)OCC1CCC(n2ccc(N)nc2=O)O1)OC(=O)CCCCCCCCCCCCC (stereo not shown) [LN3, 1,2-dimyristoylglycerophospho-5′-(3′-dideoxy)cytidine]
EC50 [3, 8]: 1100 nM

EC50 [3, 7]: 8000 nM
SMILES: CCCCCCCCCCCCCC(=O)OCC(COP(=O)(O)OP(=O)(O)OCC1OC(n2cc(C)c(=O)[nH]c2=O)CC1N=[N+]=[N-])OC(=O)CCCCCCCCCCCCC (stereo not shown) [LN4, azidothymidine diphosphate dimylristoylglycerol]

SMILES: CCCCCCCCCCCCCCCC(=O)OC[C@H]1O[C@@H](n2cc(C)c(=O)[nH]c2=O)C[C@@H]1N=[N+]=[N-] [PalmitoylAZT, 5′-palmitoyl(3′-deoxy-3′-azido)thymidine]
plaques ([1]; 0.8 uM in liposomes, 176 in the untreated control): 134
inhibition of plaque formation ([1]; 0.8 uM in liposomes, LAV-1 infected HT4-6C cells): 25%
